Test results: US5679680A, “α-substituted hydrazides having calpain inhibitory activity” (Warner-Lambert Company, priority 1995, dated 1997)

Assays:
Calmodulin-calcineurin = target: T1, Calmodulin-calcineurin (Bos taurus, UniProt P48452); experiment: Calmodulin-calcineurin assay (p-nitrophenyl phosphate); assay type: biochemical, bovine; conditions: pH 7.4, 25° C., 60 minutes or more
T1 construct: purchased Sigma; host or cells: bovine brain
Protocol: (§1) Selectivity of α-substituted Hydrazides: Calpain I and II were assayed as described in Example 1. One to 2 ng papain (papaya latex, Sigma, P3125), 1.25 μg trypsin (bovine pancreas, Sigma, T8003), 5 μg thermolysin (Bacillus thermoproteolyticus, Sigma, P1512) were assayed using 0.5 mg/mL casein as substrate in the microplate format (250 μL reaction volume), essentially a described by Buroker-Kilgore, M. and Wang K K W, Anal Biochem 1993;208: 387-392. Cathepsin B (0.002 unit, bovine spleen) was assayed with 50 mM MES (pH 5.5), 100 μM carbobenzoxy-Arg-Arg-4-methoxy-beta-naphthlamide (Cbz-Arg-Arg-MNA), inhibitor, and 2 mM DTT in 200 μL for 60 minutes at room temperature. Fifty-microliter aliquots were transferred to a fluorescence-compatible plate and then read with a Perkin-Elmer fluorometer LS-50B (excitation 340 nm and emission 425 nm). Calcineurin (bovine brain, Sigma) (5 μg, 0.8 unit) was assayed with 10 mM p-nitrophenyl phosphate in 1 mM DTT, 1 mM CaCl2, 1 mM MnCl2, […] calmodulin (CaM, if added), and 50 mM Tris-HCl (pH 7.4) at 25° C. for 60 minutes or more. Production of p-nitrophenol was monitored at 405 nm. Inhibition of these proteases are presented as IC50.

Human Calpain II = target: T2, Human Calpain II (Homo sapiens, UniProt P17655); experiment: Calpain II activity, casein substrate, Coomassie microplate assay; assay type: biochemical; conditions: casein 0.5 mg/mL (Table I)
T2 sequence (P17655 1-700): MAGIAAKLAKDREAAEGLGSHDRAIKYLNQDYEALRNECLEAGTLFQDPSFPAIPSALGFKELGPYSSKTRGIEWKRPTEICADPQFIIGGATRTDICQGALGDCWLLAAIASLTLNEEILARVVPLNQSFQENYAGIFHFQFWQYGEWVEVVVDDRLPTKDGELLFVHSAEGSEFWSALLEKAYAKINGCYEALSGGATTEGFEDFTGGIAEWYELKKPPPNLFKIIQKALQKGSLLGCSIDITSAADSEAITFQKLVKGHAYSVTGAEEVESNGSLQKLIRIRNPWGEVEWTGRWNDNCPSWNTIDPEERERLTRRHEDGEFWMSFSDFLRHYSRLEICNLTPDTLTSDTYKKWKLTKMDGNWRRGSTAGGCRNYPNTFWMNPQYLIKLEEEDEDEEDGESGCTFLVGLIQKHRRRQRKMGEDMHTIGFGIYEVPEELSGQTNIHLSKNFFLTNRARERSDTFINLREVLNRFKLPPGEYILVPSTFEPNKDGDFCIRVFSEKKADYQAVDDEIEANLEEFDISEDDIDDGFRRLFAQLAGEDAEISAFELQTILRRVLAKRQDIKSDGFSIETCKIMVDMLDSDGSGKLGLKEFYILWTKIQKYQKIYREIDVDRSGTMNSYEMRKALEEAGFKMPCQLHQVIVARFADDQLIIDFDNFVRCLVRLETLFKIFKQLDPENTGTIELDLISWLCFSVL
T2 sequence (P04632 1-268 partner): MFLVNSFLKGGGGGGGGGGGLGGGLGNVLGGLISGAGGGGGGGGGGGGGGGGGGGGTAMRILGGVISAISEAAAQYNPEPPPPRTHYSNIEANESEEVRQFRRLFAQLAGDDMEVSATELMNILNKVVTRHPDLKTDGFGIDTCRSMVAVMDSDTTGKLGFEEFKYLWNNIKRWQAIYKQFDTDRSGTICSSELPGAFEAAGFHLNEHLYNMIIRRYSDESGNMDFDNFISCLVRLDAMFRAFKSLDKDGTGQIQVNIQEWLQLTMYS
Protocol: Assay of calpain activity: Calpain I was purified from human erythrocytes as described by Wang K K W, Roufogalis B D, and Villalobo A, Arch Biochem Biophys 1988;267: 317-327. Calpain activity was assayed in a 96-well microplate format (Buroker-Kilgore M and Wang K K W, Anal Bio Chem 1993;208: 387-392). In 250 μL of reaction mixture, substrate casein (0.5 mg/mL) was incubated with 0.01 unit (80-120 ng) calpain I, 20 mM dithiothreitol (DTT), 50 mM Tris-HCl (pH 7.4 at 25° C.) and 4 mM CaCl2 at 25° C. for 60 minutes. Two 100-μL aliquots were taken for Coomassie blue G250 binding analysis to quantify the remaining casein.
Compound concentrations that cause 50% inhibition (IC50) are as shown (Table I). The second rate of inactivation of calpain I for 2 compounds are also shown.
as §1

Cathepsin B = target: T3, Cathepsin B (Bos taurus, UniProt P07688); experiment: Cathepsin B assay (Cbz-Arg-Arg-MNA substrate); assay type: biochemical, bovine; conditions: pH 5.5, 60 minutes, room temperature
T3 construct: Cathepsin B (0.002 unit, bovine spleen); from tissue; host or cells: bovine spleen
Protocol: as §1

[1] = tested on: Spectrin Breakdown in Human Leukemic Molt-4 cells; experiment: Cell-based calpain assay: spectrin breakdown in Molt-4 cells treated with calcium ionophore A23187; conditions: 1 hour preincubation, 15 μM A23187, 90 minutes, read-out: IC50 for inhibition of spectrin breakdown (145 kD fragment formation)
Protocol: Calpain inhibitor was added to the wells if desired and preincubated for 1 hour. […] The cells were then lysed with 2% (w/v) SDS, 5 mM EGTA, 5 mM EDTA, 150 mM NaCl, 0.5 mM PMSF, 10 μg/mL AEBSF, 5 μg/mL leupeptin, 10 μg/mL pepstatin, 10 μg/mL TLCK, 10 μg/mL TPCK, and 20 mM Tris-HCl (pH 7.4) at room temperature for 5 to 10 minutes. One hundred microliters of 100% (w/v) TCA was added and total protein precipitate was collected by microcentrifugation. The final pellets were neutralized with Tris base. Protein samples (50 μg) were run on SDS-PAGE with the Tris-glycine running buffer system and transferred onto a PVDF membrane. The blots were probed with an anti-spectrin (nonerythroid) antibody and a second antibody with alkaline phosphatase conjugate. The blots were developed with nitro blue tetrazolium and 5-bromo-4-chloro-3-indolyl-phosphate.

Papain = target: T4, Papain (Carica papaya, UniProt P00784); experiment: Papain assay, casein substrate; assay type: biochemical; conditions: 0.5 mg/mL casein
T4 construct: purchased Sigma P3125; host or cells: papaya latex
T4 sequence (P00784 134-345): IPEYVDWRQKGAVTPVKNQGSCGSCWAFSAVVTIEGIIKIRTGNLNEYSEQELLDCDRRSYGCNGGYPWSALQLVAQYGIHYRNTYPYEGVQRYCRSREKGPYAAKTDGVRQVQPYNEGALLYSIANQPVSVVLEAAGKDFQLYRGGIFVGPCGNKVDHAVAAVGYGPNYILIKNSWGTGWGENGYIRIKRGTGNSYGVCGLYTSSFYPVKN
Protocol: as §1

In the case of `O=C(CCl)NN=c1[nH]c2ccccc2n(-c2ccccc2)c1=O` [Example 5, 2-Chloro-acetic acid (3-oxo-4-phenyl-3,4-dihydro-1H-quinoxalin-2-ylidene)-hydrazide], the IC50 (Calmodulin-calcineurin) is reported as greater than 500 µM, the IC50 (Human Calpain II) is reported as 0.59 µM and the IC50 (Cathepsin B) is reported as greater than 200 µM. It also gave an IC50 [1] of 25 µM and an IC50 (Papain) of 5.6 µM.
